According to article PMC11235171, “Microproteins encoded by noncanonical ORFs are a major source of tumor-specific antigens in a liver cancer patient meta-cohort” (Science Advances, 2024):

Assays:
HHD-DR1 mice [1] = experiment: IFN-γ ELISPOT on splenocytes of peptide-immunized HLA-A*02:01 transgenic mice; type: in vivo, mouse; details: for IFN-γ signal after peptide immunization (immunogenicity), in words: HLA-A*02:01 / HLA-DRB1*01 transgenic mice immunized twice, T cell response measured at day 14 by IFN-γ ELISPOT
Protocol: (§1) Eight-week-old female HHD-DR1 mice, transgenic for human HLA-A*02:01 molecules ([82]), were used. After study approval by the ethics review committee (reference no. 036-21), mice were bred and housed under pathogen-free conditions in the animal facility of the Center for Applied Medical Research (CIMA). Mice (n = 4 per group) were immunized with peptides (100 nmol per peptide), polyinosinic:polycytidylic acid (50 μg per mouse), and αCD40 (50 μg per mouse). The peptides and adjuvants were administered simultaneously via subcutaneous injection of 100 μl of the mixture resuspended in phosphate-buffered saline. Mice received a boost on day 7 and were euthanized on day 14.
The spleens of immunized mice were processed to measure the number of IFN-γ secreting cells. Splenocytes (8 × 10^5 cells per well) were stimulated for 24 hours with peptides (10 μg/ml). The number of IFN-γ secreting cells was quantified by ImmunoSpot automated counter (Cellular Technology Limited) using the Spot 3 CTL CellCounting software.

HHD-DR1 mice [2] = experiment: IFN-γ intracellular cytokine staining (flow cytometry) of CD4+ and CD8+ T cells after peptide immunization; type: in vivo, mouse; details: splenocytes of immunized mice stimulated with peptide 10 μM, 4 hours, GolgiStop/GolgiPlug; cell density plots
Protocol: as §1
Splenocytes were stimulated with the peptides (10 μM) in the presence of GolgiStop and GolgiPlug (BD Biosciences). Four hours later, cells were surface stained with the following antibodies: CD3ε-Percp-Cy5 (145-2 C11), CD4-FITC (RM4-5), and CD8-BV421 (53-6.7) from BioLegend. Next, cells were fixed and permeabilized using BD Cytofix/Cytoperm Fixation/Permeablization Kit and intracellularly stained with IFNγ-PE (XMG1.2) antibodies. Samples were acquired with a Cytoflex (Beckman Coulter) flow cytometer and were analyzed using FlowJo software (Tree Star).

Sequence | IFN-γ signal after peptide immunization (immunogenicity), in words (HHD-DR1 mice [1]) | IFN-γ producing CD8+ versus CD4+ T cells (ICS), in words (HHD-DR1 mice [2]) | number of IFN-γ secreting cells (IFNγSFC) (HHD-DR1 mice [1]; HHD-DR1 mice, n = 4 per group, 100 nmol peptide + poly I:C + αCD40 s.c., boost day 7, spleens day 14, splenocytes stimulated 24 hours with peptide 10 μg/ml, all four replicates)
GLFHIYHKI | strong IFN-γ signal | signal for CD8+ cells only | 
WMSLDWELYV | strong IFN-γ signal | signal for CD8+ cells only | > 1000 IFNγSFC per 8 × 10^5 cells
